Experimental data from US20210163308A1, “COMPOSITIONS AND METHODS FOR THE MODULATION OF CYTOKINES” (GALLEON LABS LLC, priority 2018, published 2021).

Legend:
[1] = test system: primary human cells (3C, 4H, LPS, SAg, BT, BF4T, BE3C, CASM3C, HDF3CGF, KF3CT, MyoF, /Mphg systems); assay: Study CSM001-01-b: biomarker readouts in primary human cell systems, compounds in DMSO; assay type: cell-based
Protocol: Profiling was performed using the following processes:
(§1) All test compounds were dissolved in dimethyl sulfoxide (DMSO).

primary human cells = assay: Study CSM001-01-b: overt cytotoxicity (SRB, Alamar Blue); assay type: cell-based; settings: DMSO, >50% reduction in cellular protein levels (SRB) and/or PBMC viability
Protocol: An annotated assay profile was prepared for each test agent. Biomarker readouts are annotated when two or more consecutive concentrations are changed in the same direction, relative to the vehicle control, outside of the significance envelope and with an effect size of at least 10% (more than 0.05 log ratio units). Biomarker activities are annotated as “modulated” when they are increased in some system(s) and decreased in other system(s). If applicable, a benchmark overlay was performed at the top non-cytotoxic concentration. Results of a similarity search (all test agents) and clustering (at least three test agents) were determined. […] A table of overtly cytotoxic test agents was also prepared which are test agents with a >50% reduction in cellular protein levels (sulforhodamine B, SRB) in one or more systems; and/or >50% reduction in PBMC viability. […]
Alamar Blue assays were used to determine the viability of non-adherent PBMCs in the assay systems, and are based on the conversion of resazurin to resorufin via the reduction reactions of metabolically active cells. […] Upon entering cells, resazurin is reduced to resorufin which produces very bright red fluorescence. Viable cells continuously convert resazurin to resorufin, thereby generating a quantitative measure of viability and cytotoxicity. The amount of fluorescence produced is proportional to the number of living cells. […]

[2] = test system: primary human cells (3C, 4H, LPS, SAg, BT, BF4T, BE3C, CASM3C, HDF3CGF, KF3CT, MyoF, /Mphg systems); assay: Study CSM002-01-b: biomarker readouts in primary human cell systems, compounds in PBS; assay type: cell-based; settings: for TF / TM: hemostasis-related activity
Protocol: Profiling was performed using the following processes: […]

[3] = test system: primary human cells (HDFSAg, HDF3CGF, KF3CT, HDFLPS systems); assay: Study CSM003-01-b: biomarker readouts in primary human cell systems, compounds in PBS; settings: for pattern of immune responses in HDFSAg: HDFSAg system
Protocol: The following compounds were screened in the assay system at the noted concentrations to test for anti-proliferative, inflammation-related, immunomodulatory, tissue remodeling and hemostasis-related activities at the noted concentrations (Table 4). All test compounds were dissolved in phosphate buffered saline (PBS).
(§2) The following primary human cells were used as test systems: HDFSAg (dermal fibroblasts), HDF3CGF (dermal fibroblasts); KF3CT (keratinocytes+dermal fibroblasts) and HDFLPS (dermal fibroblasts+peripheral blood mononuclear cells).

[4] = test system: endothelial cells, T cells, coronary artery smooth muscle cells and fibroblasts; assay: Study CSM002-01-b: anti-proliferative activity; assay type: cell-based, human; settings: PBS
fibroblasts = assay: Study CSM003-01-b: anti-proliferative activity; assay type: cell-based, human; settings: PBS, anhydrous
Protocol: All test compounds were dissolved in phosphate buffered saline (PBS).
as §2

[5] = test system: endothelial cells, T cells, B cells, coronary artery smooth muscle cells and fibroblasts; assay: Study CSM001-01-b: anti-proliferative activity; assay type: cell-based, human; settings: DMSO
Protocol: as §1

CC(=O)N[C@@H](CS)C(=O)O [N-acetyl-L-cysteine]
CD40 ([1]; immunomodulatory activity): decreased
sIL-17A ([1]; immunomodulatory activity): decreased
Eotaxin-3 ([1]; inflammation-related activity): decreased
IL-6 ([1]; inflammation-related activity): increased
IL-8 ([1]; inflammation-related activity): modulated
IP-10 ([1]; inflammation-related activity): decreased
MIG ([1]; inflammation-related activity): decreased
sTNFα ([1]; inflammation-related activity): decreased
Collagen-I ([1]; tissue remodeling activity): increased
EGFR ([1]; tissue remodeling activity): decreased
Keratin 8/18 ([1]; tissue remodeling activity): increased
MMP-1 ([1]; tissue remodeling activity): increased
MMP-3 ([1]; tissue remodeling activity): increased
MMP-9 ([1]; tissue remodeling activity): modulated
PAI-I ([1]; tissue remodeling activity): increased
TIMP-I ([1]; tissue remodeling activity): increased
tPA ([1]; tissue remodeling activity): increased
uPAR ([1]; tissue remodeling activity): increased
overt cytotoxicity (primary human cells): overtly toxic in multiple systems at the top two concentrations tested
Esel ([2]; inflammation-related activity): decreased
IL1α ([2]; inflammation-related activity): decreased
IL-6 ([2]; inflammation-related activity): decreased
IL-8 ([2]; inflammation-related activity): decreased
IP-10 ([2]; inflammation-related activity): decreased
ITAC ([2]; inflammation-related activity): decreased
sTNFα ([2]; inflammation-related activity): decreased
Col-I ([2]; tissue remodeling activity): increased
EGFR ([2]; tissue remodeling activity): decreased
MMP-3 ([2]; tissue remodeling activity): increased
tPA ([2]; tissue remodeling activity): modulated
αSMA ([2]; tissue remodeling activity): increased

O.O.O.O.O.O.[Cl-].[Cl-].[Sr+2] [Strontium chloride hexahydrate]
pattern of immune responses in HDFSAg [3]: enhanced immune responses
sIL-6 ([3]; immunomodulatory activity): increased
sIL-10 ([3]; immunomodulatory activity): increased
sIL-17A ([3]; immunomodulatory activity): increased
sIL-17F ([3]; immunomodulatory activity): increased

O=[N+]([O-])[O-].O=[N+]([O-])[O-].[Sr+2] [Strontium nitrate, Strontium Nitrate]
TF ([1]; hemostasis-related activity): increased
TM ([1]; hemostasis-related activity): increased
HLA-DR ([1]; immunomodulatory activity): decreased
M-CSF ([1]; immunomodulatory activity): increased
sIL-6 ([1]; immunomodulatory activity): decreased
sIL-17A ([1]; immunomodulatory activity): decreased
sIL-17F ([1]; immunomodulatory activity): decreased
sIgG ([1]; immunomodulatory activity): decreased
Eotaxin-3 ([1]; inflammation-related activity): decreased
I-TAC ([1]; inflammation-related activity): decreased
IL-1α ([1]; inflammation-related activity): decreased
IL-8 ([1]; inflammation-related activity): decreased
IP-10 ([1]; inflammation-related activity): decreased
MCP-1 ([1]; inflammation-related activity): decreased
SAA ([1]; inflammation-related activity): decreased
VCAM-1 ([1]; inflammation-related activity): decreased
sPGE2 ([1]; inflammation-related activity): increased
sTNFα ([1]; inflammation-related activity): decreased
Keratin 8/18 ([1]; tissue remodeling activity): increased
MMP-1 ([1]; tissue remodeling activity): decreased
MMP-3 ([1]; tissue remodeling activity): increased
MMP-9 ([1]; tissue remodeling activity): decreased
PAI-I ([1]; tissue remodeling activity): decreased
TIMP-2 ([1]; tissue remodeling activity): increased
uPAR ([1]; tissue remodeling activity): decreased
proliferation of coronary artery smooth muscle cells [4]: anti-proliferative
TF [2]: decreased
TM [2]: increased
CD40 ([2]; immunomodulatory activity): increased
M-CSF ([2]; immunomodulatory activity): decreased
ICAM-1 ([2]; inflammation-related activity): increased
IL1α ([2]; inflammation-related activity): modulated
IP-10 ([2]; inflammation-related activity): decreased
MIP-1 ([2]; inflammation-related activity): decreased
VCAM-1 ([2]; inflammation-related activity): increased
sTNFα ([2]; inflammation-related activity): decreased
Ker 8/18 ([2]; tissue remodeling activity): increased
MMP-1 ([2]; tissue remodeling activity): increased
MMP-9 ([2]; tissue remodeling activity): increased
tPA ([2]; tissue remodeling activity): increased
uPAR ([2]; tissue remodeling activity): increased
proliferation of fibroblasts (fibroblasts): anti-proliferative to fibroblasts at the top concentration only
pattern of immune responses in HDFSAg [3]: enhanced immune responses
sIL-2 ([3]; immunomodulatory activity): increased
sIL-6 ([3]; immunomodulatory activity): increased
sIL-10 ([3]; immunomodulatory activity): increased
MCP-1 ([3]; inflammation-related activity): decreased
proliferation of B cells [5]: anti-proliferative
proliferation of T cells [5]: anti-proliferative
proliferation of coronary artery smooth muscle cells [5]: anti-proliferative
proliferation of endothelial cells [5]: anti-proliferative
proliferation of fibroblasts [5]: anti-proliferative

CC(O)CC(=O)O (stereo not drawn) [beta hydroxybutyric acid]
M-CSF ([1]; immunomodulatory activity): increased
sIgG ([1]; immunomodulatory activity): decreased
ICAM-1 ([1]; inflammation-related activity): increased
IL-1α ([1]; inflammation-related activity): increased
IL-8 ([1]; inflammation-related activity): decreased
MIG ([1]; inflammation-related activity): decreased
VCAM-1 ([1]; inflammation-related activity): decreased
Collagen-I ([1]; tissue remodeling activity): increased
EGFR ([1]; tissue remodeling activity): increased
MMP-9 ([1]; tissue remodeling activity): modulated
PAI-I ([1]; tissue remodeling activity): modulated
tPA ([1]; tissue remodeling activity): increased
uPA ([1]; tissue remodeling activity): increased
proliferation of T cells [4]: anti-proliferative
proliferation of coronary artery smooth muscle cells [4]: anti-proliferative
proliferation of endothelial cells [4]: anti-proliferative
overt cytotoxicity (primary human cells): overtly toxic in multiple systems at the top concentration tested
TF [2]: increased
TM [2]: increased
CD40 ([2]; immunomodulatory activity): increased
CD69 ([2]; immunomodulatory activity): increased
M-CSF ([2]; immunomodulatory activity): increased
sIL-6 ([2]; immunomodulatory activity): increased
IL1α ([2]; inflammation-related activity): decreased
IL-8 ([2]; inflammation-related activity): decreased
MCP-1 ([2]; inflammation-related activity): increased
sTNFα ([2]; inflammation-related activity): decreased
Col-I ([2]; tissue remodeling activity): increased
MMP-3 ([2]; tissue remodeling activity): increased
MMP-9 ([2]; tissue remodeling activity): decreased
αSMA ([2]; tissue remodeling activity): increased
proliferation of T cells [5]: anti-proliferative
proliferation of endothelial cells [5]: anti-proliferative

O=C(O)c1cc(O)c(O)c(O)c1 [gallic acid, 3,4,5-trihydroxy benzoic acid]
M-CSF ([1]; immunomodulatory activity): decreased
sIL-2 ([1]; immunomodulatory activity): decreased
sIL-10 ([1]; immunomodulatory activity): increased
sIL-17A ([1]; immunomodulatory activity): decreased
Eotaxin-3 ([1]; inflammation-related activity): decreased
I-TAC ([1]; inflammation-related activity): decreased
ICAM-1 ([1]; inflammation-related activity): decreased
IL-1α ([1]; inflammation-related activity): decreased
IL-8 ([1]; inflammation-related activity): increased
IP-10 ([1]; inflammation-related activity): decreased
MIG ([1]; inflammation-related activity): decreased
MIP-1 ([1]; inflammation-related activity): increased
SAA ([1]; inflammation-related activity): decreased
VCAM-1 ([1]; inflammation-related activity): modulated
sTNFα ([1]; inflammation-related activity): decreased
Collagen-III ([1]; tissue remodeling activity): increased
Collagen-IV ([1]; tissue remodeling activity): increased
EGFR ([1]; tissue remodeling activity): increased
Keratin 8/18 ([1]; tissue remodeling activity): decreased
MMP-1 ([1]; tissue remodeling activity): increased
MMP-3 ([1]; tissue remodeling activity): increased
MMP-9 ([1]; tissue remodeling activity): decreased
PAI-I ([1]; tissue remodeling activity): modulated
bFGF ([1]; tissue remodeling activity): decreased
tPA ([1]; tissue remodeling activity): increased
α-SMA ([1]; tissue remodeling activity): increased
proliferation of T cells [4]: anti-proliferative
proliferation of coronary artery smooth muscle cells [4]: anti-proliferative
proliferation of endothelial cells [4]: anti-proliferative
proliferation of fibroblasts [4]: anti-proliferative
M-CSF ([2]; immunomodulatory activity): modulated
IL-8 ([2]; inflammation-related activity): increased
IP-10 ([2]; inflammation-related activity): increased
ITAC ([2]; inflammation-related activity): decreased
VCAM-1 ([2]; inflammation-related activity): decreased
sPGE2 ([2]; inflammation-related activity): increased
sTNFα ([2]; inflammation-related activity): decreased
MMP-9 ([2]; tissue remodeling activity): increased
tPA ([2]; tissue remodeling activity): increased
uPA ([2]; tissue remodeling activity): increased
αSMA ([2]; tissue remodeling activity): increased
proliferation of T cells [5]: antiproliferative
proliferation of coronary artery smooth muscle cells [5]: antiproliferative
proliferation of endothelial cells [5]: antiproliferative
proliferation of fibroblasts [5]: antiproliferative
